According to patent publication US20230202997A1, “CHROMANOL, QUINONE OR HYDROQUINONE COMPOUNDS FOR TREATMENT OF SEPSIS” (Sulfateq B.V., priority 2020, published 2023):

How the values were obtained:
[1] = tested on: plasma levels of IL-6, TNF-α and IL12; experiment: CLP sepsis model, plasma cytokines by ELISA; assay type: in vivo; details: CLP mice; SUL-138 5 mg/kg s.c. 2 h before and 8 h after surgery; 24 hours
Protocol: To induce sepsis, the standard cecal ligation and puncture (CLP) model was used. Animals were anesthetized by subcutaneous injection of xylazine/ketamine (100/10 mg/kg), followed by administration of buprenorphine (0.1 mg/kg) as analgesic. After confirmation of anesthesia by lack of response to paw pinch and eye reflex, the abdomen was shaved, cleaned, and de-germed using a povidone-iodine solution before a 1-cm midline incision was made. The cecum was ligated with a 6-0 suture at half the distance between distal pole and the base of the cecum and punctured once with a 21-Gauge needle (‘through-and-through’ from mesenteric toward anti-mesenteric direction) which is an accepted model for ‘mid-grade’ sepsis. A small amount of stool (2-3 mm) was then extruded to ensure wound patency. The cecum was repositioned, thereby taking care not to spill fecal material on the wound edges, followed by closure of the abdomen by running sutures to the abdominal musculature and short interrupted sutures to the skin. Next, 1 ml of saline (warmed, 0.9% NaCl s.c.) was administered to compensate for the expected relative volume depletion due to the onset of sepsis.
Mice in the SUL-138 treated groups were injection with SUL-138 (dissolved in saline, 5 mg/kg, s.c.) at 2 hours before and 8 hours after surgery, while mice in the other groups were injected with an equal volume of saline at these time-points.
Mice were sacrificed 24 hours after the procedure. Upon euthanization, EDTA-anticoagulated blood was separated into plasma by centrifugation at 1,600 g for 10 min and serum by allowing it to clot for 30 min followed by centrifugation at 3,000 g for 10 min.
To quantify the effect of sepsis severity and treatment with SUL-138 on systemic inflammation, levels of TNFα, IL-6 and IL-12 in plasma were measured using Mouse DuoSet ELISAs (DY410, DY406 and D419, respectively, RnD-Systems), according to the manufacturer's instructions. […] The optical density (OD) was measured using a microplate reader set to 450 nm, while readings at 540 nm were subtracted as correction to increase accuracy.

NO production in HUVEC = experiment: Endothelial NO production (nitrate in conditioned medium), basal and after LPS; assay type: cell-based, Human; details: 10 μM pre-treatment, LPS 100 ng/ml for 24 hours
Protocol: (§1) Human Umbilical Cord Endothelial Cells (HUVEC, Lonza CC-2519) were maintained on 1% gelatin-coated culture flasks in RPMI1640 medium containing 20% fetal bovine serum, 2 mM Glutamine (Sigma-Aldrich), 1% Penicillin-Streptomycin solution (Sigma-Aldrich) and 50 μg/ml Bovine Pituitary Extract (Invitrogen). HUVEC were passaged by trypsinization when the cultures reach a confluency of 70%. For all experiments, HUVEC were seeded at 0.6·10^5 cells/cm^2 and allowed to adhere for 24 hours.
Cellular production of NO was approximated by measuring nitrate concentrations in culture media using the Measure-IT™ High-Sensitivity Nitrite Assay Kit (#M36051, ThermoFisher) according to manufacturer's instructions. […] Therefore, nitrate concentrations in conditioned media are a good approximate to assess cellular NO production. 50 μl conditioned medium derived from a single 96-wells plate well was used per assay and normalized against protein concentration. All experiments were performed in quadruplicate.
Endotoxins suppress endothelial NO production by limiting the activity of eNOS. HUVEC were pre-treated with vehicle (DMSO), BN-80933, SUL-138, or SUL-150 or (all 10 μM) prior to endotoxin (LPS 100 ng/ml) exposure for 24 hours. The nitrate levels in the conditioned medium from endothelial cells exposed to LPS averaged at 160 pmol/mg protein (˜33% reduction versus non LPS exposed HUVEC, p=0.002), which was lower than basal control levels. BN-80933 further suppressed the nitrate levels in the conditioned medium (FIG. 7A) to an average of 90 pmol/mg protein (p=0.008).

HUVEC = experiment: Cell viability after hypothermia-rewarming stress (Neutral Red); assay type: cell-based, Human; details: 10 μM for 1 hour, 4° C. for 24 hours followed by 37° C. for 3 hours
Protocol: as §1
HUVEC were pre-treated with BN-80933, SUL-138 or SUL-150 (all 10 μM) for 1 hour in a humidified incubator at 37° C. Following pre-treatment, HUVEC were placed in a cold room (2-8° C.) for 24 hours and subsequently placed back at 37° C. for a 3 hour rewarming period. After 1 hour of rewarming, cell culture medium was replaced by prewarmed and filtered 0.4 mg/mL Neutral Red (#N463 8, Sigma-Aldrich) in culture medium. After the remaining 2 hour rewarming period, HUVEC were washed with PBS and NRU was solubilized in 100 μL resorption solution (50% ethanol, 1% ascetic acid in dH2O). The absorbance was measured at a wavelength of 550 nm on a BioTek ELx808 plate reader. The recorded OD550 nm values were normalized to control samples that were maintained at 37° C. at all times, which were assumed to be 100% viable.

Cc1c(C)c2c(c(C)c1O)CC[C@@](C)(C(=O)N1CCN(CCO)CC1)O2 [SUL-138, (S)-(6-hydroxy-2,5,7,8-tetramethylchroman-2-yl)(4-(2-hydroxyethyl)piperazin-1-yl)methanone]
plasma level of IL12 [1]: decreased by treatment with SUL-138 to levels close to untreated control
plasma level of IL-6 [1]: decreased by treatment with SUL-138 to levels close to untreated control
plasma level of TNF-α [1]: clearly lower, but the difference did not reach significance
nitrate levels in the conditioned medium after LPS (NO production in HUVEC): mitigated the LPS-induced reduction in nitrate levels and their levels did not change from basal nitrate level
reduction in cell viability versus normothermic control cells (HUVEC): ~15%
